One test deals with histamine-induced PPE. Put plainly: Histamine-induced plasma protein extravasation in the lung. Format: in vivo, guinea-pigs. The text has this: Briefly, guinea-pigs (male Dunkin Hartley, 300-400g) were given an intracardiac injection of iodinated human serum albumin (0.5µCi) in heparinised saline (10U.ml^-1).
In test [1] the test system is Zymosan-induced Granylocyte-dependent PPE. Briefly: Zymosan-induced granulocyte-dependent plasma protein extravasation in skin. The format is in vivo, guinea-pig. Further details: Zymosan-induced Granylocyte-dependent PPE: unit not given here. Here is the method: (§1) The effect of β2-adrenoreceptor agonists on granulocyte-dependent and independent vascular permeability induced in guinea-pig skin, by intradermal challenge with zymosan and histamine respectively, was evaluated using a modification of the method of Issekutz Lab. Invest .,45 , 435-441(1981).
(§2) Plasma protein extravasation (PPE) was calculated as µl plasma equivalents.

Test [2] deals with Histamine-induced Granulocyte Independent PPE. Briefly: Histamine-induced granulocyte-independent plasma protein extravasation in skin. Format: in vivo, guinea-pig. On the procedure:
as §1, §2

The subject of test [3] is zymosan-induced PMN cell accumulation in guinea-pig skin. Briefly: Zymosan-induced PMN cell accumulation in skin. As to conditions: for % Inhibition of PMN cell accumulation: together with zymosan 0.2mg.site^-1.
Test [4] deals with LPS-induced neutrophil accumulation. Put plainly: LPS-induced neutrophil accumulation in bronchoalveolar lavage fluid. Format: in vivo, guinea-pigs. As to conditions: 0.1 mg.ml^-1 aerosol 30 min prior to LPS 100µg.ml^-1; 4 hours after challenge (LPS alone 141.3 ± 33.3, baseline 3.8 ± 1.2).
Method: (§3) Briefly, guinea-pigs (male Dunkin Hartley, 300-400g) were exposed to an aerosol of 100µg.ml^-1 E. coli lipopolysaccharide (LPS;026:B6, Sigma Ltd) or 100µg.ml^-1 platelet activating factor (PAF; Sigma Ltd.) for 10 min. […] The total leukocyte count of the bronchoalveolar lavage fluid (BALF) recovered was determined. A cytospin preparation was prepared from the BALF, fixed with methanol, stained with Wright's stain and a differential leukocyte count was carried out.
The subject of test [5] is PAF-induced eosinophil infiltration. Put plainly: PAF-induced eosinophil infiltration in bronchoalveolar lavage fluid. Format: in vivo, guinea-pigs. The note with it: inhalation 0.1mg.ml^-1 30 min prior to PAF 100µg.ml^-1; 24 hours after challenge (PAF alone 97.7 ± 18.8, baseline 53.3 ± 12.5).
Method: as §3
[6] abbreviates: Cavia porcellus, PMN, po, read-out: % Inhibition of PMN cell accumulation.

Broadly, the ED50 is the midpoint of the dose-response relation. The term inhibition denotes the drop in the measured response relative to a control, in per cent.

As for `CC(C)(C)NCC(O)c1ccc(O)c(CO)c1` (stereo not drawn) [salbutamol, reference compound], the ED50 with histamine-induced PPE (Cavia porcellus, po, 0.5 h, p.o., 30 min prior to histamine, read-out: ED50, inhibition of histamine-induced PPE) was found to be 0.02 mg/kg. For the same compound, the “time after which there is substantial loss of activity against histamine induced PPE” value in the test with histamine-induced PPE (equi-effective doses) amounted to 2 h. The “inhibitory effect on zymosan-induced PPE” value in test [1] (10-100mg.kg^-1 p.o.) is reported as “no inhibitory effect”. In addition, the “dose required for a comparable effect on granulocyte-independent PPE, relative to salmeterol” value in test [2] (compared with salmeterol 10mg.kg^-1 p.o.) is reported as “Approximately 10 fold”. The “inhibitory effect on PMN cell accumulation” value in test [3] (10-100mg.kg^-1 p.o.) is “no significant inhibitory effect”.

Turning to `OCc1cc(C(O)CNCCCCCCOCCCCc2ccccc2)ccc1O` (stereo not drawn) [salmeterol, 4-hydroxy-α^1-[[[6-(4-phenylbutoxy)hexyl]amino]methyl]-1,3-benzenedimethanol], the BALF neutrophil count in test [4] is listed as 46.8 ± 9.1 x10^3 cells.ml^-1. In test [5], the BALF eosinophil count is 59.2 ± 19.8 x10^3 cells.ml^-1. Moreover, the “inhibition of histamine-induced PPE at the highest doses” value with histamine-induced PPE (aerosol, nebuliser concentration 0.001-1mg.ml^-1) was “complete inhibition”. Further, the “Zymosan-induced Granylocyte-dependent PPE” value in test [1] (Intradermal 10^-8 (nmol.site^-1), co-administered with zymosan) was 51.7; in test [1] (Intradermal 10^-9 (nmol.site^-1), co-administered with zymosan) it was 1.8; in test [1] (Oral 1.0 mg.kg^-1, 1 hour before zymosan 0.2mg.site^-1) it was 47.0; in test [1] (Oral 10.0 mg.kg^-1, 1 hour before zymosan 0.2mg.site^-1), 56.0. Also, the “Histamine-induced Granulocyte Independent PPE” value in test [2] (Oral 1.0 mg.kg^-1, 1 hour before histamine 100ng.site^-1) is on record as 9.2; in test [2] (Oral 10.0 mg.kg^-1, 1 hour before histamine 100ng.site^-1), 58.5. Besides, the inhibition at 1 mg/kg in test [3] (setting [6]) turned out to be 27%. Also, in test [3] (setting [6]), the inhibition at 10 mg/kg is 59%. Besides, the “% Inhibition of PMN cell accumulation” value in test [3] (Intradermal 10^-8 (nmol.site^-1)) is 51%; in test [3] (Intradermal 10^-9 (nmol.site^-1)), 16%.

(Values after patent publication EP1078629A2 (GLAXO GROUP LIMITED, priority 1989, dated 1991).)
